The assay has as its system Human alphaherpesvirus 1. Nature of the assay: Antiviral activity against HSV1 assessed as plaque reduction at 30 to 200 […]. Format: functional. Also noted: scale not given: the % may be the effect or the level left.

`CC1(C)C[C@H](O)C[C@@]2(C)[C@H]1CC[C@H]1C[C@H]3C[C@]12CC[C@]3(C)O[C@@H]1O[C@H](CO)[C@@H](O)[C@H](O)[C@H]1O` [STEMODINOSIDE B]: the Activity stood at 77%.
